Test results taken from ChEMBL document CHEMBL5226341, “Discovery of a Potent FLT3 Inhibitor (LT-850-166) with the Capacity of Overcoming a Variety of FLT3 Mutations” (J Med Chem, 2021).

How the values were obtained:
MV4-11 [1] = experiment: Antiproliferative activity against human MV4-11 cells assessed as inhibition of cell growth incubated for 72 hrs by CellTiterGlo luminescent assay; assay type: functional, cell-based; settings: MV4-11, 72 h
BaF3 [2] = experiment: Antiproliferative activity against mouse BaF3 cells harboring FLT3-ITD-F691L mutant assessed as residual cell viability at 10 nM incubated for 72 hrs by CellTiterGlo luminescent assay; assay type: functional
[3] = biological target: Receptor-type tyrosine-protein kinase FLT3 (Homo sapiens, UniProt P36888, ITD); experiment: Inhibition of human FLT3-ITD mutant preincubated with enzyme for 20 mins followed by [gamma-33P]ATP addition and measured after 120 mins by filter binding method
Sequence of Receptor-type tyrosine-protein kinase FLT3 (P36888 whole entry, looked up, stated change not applied): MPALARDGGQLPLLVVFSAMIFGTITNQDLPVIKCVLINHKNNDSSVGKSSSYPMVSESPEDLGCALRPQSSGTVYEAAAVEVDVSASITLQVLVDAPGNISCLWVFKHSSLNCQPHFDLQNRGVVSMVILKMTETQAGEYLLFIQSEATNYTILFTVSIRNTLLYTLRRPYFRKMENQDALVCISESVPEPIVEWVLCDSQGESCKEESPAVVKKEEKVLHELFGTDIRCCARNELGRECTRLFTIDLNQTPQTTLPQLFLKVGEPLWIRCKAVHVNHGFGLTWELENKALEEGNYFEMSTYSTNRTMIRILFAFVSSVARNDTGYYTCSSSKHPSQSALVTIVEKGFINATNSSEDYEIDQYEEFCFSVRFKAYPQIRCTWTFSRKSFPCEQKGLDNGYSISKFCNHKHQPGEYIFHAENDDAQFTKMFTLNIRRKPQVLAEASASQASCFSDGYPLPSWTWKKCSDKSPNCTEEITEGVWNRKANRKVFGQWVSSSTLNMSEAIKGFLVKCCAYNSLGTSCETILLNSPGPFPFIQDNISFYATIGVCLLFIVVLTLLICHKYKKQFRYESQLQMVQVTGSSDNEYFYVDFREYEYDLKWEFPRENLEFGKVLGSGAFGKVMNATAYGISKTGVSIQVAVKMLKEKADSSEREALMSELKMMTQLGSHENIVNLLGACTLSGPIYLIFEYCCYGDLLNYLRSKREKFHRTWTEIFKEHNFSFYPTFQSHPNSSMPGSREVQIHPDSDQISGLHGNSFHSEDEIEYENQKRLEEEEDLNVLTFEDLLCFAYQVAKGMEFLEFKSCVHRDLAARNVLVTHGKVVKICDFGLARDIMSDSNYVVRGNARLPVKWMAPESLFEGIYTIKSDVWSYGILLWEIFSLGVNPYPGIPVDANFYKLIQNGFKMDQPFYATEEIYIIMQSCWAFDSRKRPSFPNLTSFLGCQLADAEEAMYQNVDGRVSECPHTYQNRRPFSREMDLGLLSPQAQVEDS

BaF3 [4] = experiment: Antiproliferative activity against mouse BaF3 cells harboring FLT3-ITD-F691L mutant assessed as residual cell viability at 0.1 uM incubated for 72 hrs by CellTiterGlo luminescent assay; assay type: functional
BaF3 [5] = experiment: Antiproliferative activity against mouse BaF3 cells harboring FLT3-ITD-F691L mutant assessed as residual cell viability at 50 nM incubated for 72 hrs by CellTiterGlo luminescent assay; assay type: functional
MV4-11 [6] = experiment: Antitumor activity against human MV4-11 cells xenografted in BALB/c mouse assessed as tumor growth inhibition at 30 mg/kg, iv QD for 21 days by vernier caliper analysis; assay type: functional; settings: MV4-11, 504 h, time 21 day, read-out: TGI
MV4-11 [7] = experiment: Antitumor activity against human MV4-11 cells xenografted in BALB/c mouse assessed as inhibition rate of tumor weight at 30 mg/kg, iv QD for 21 days by vernier caliper analysis; assay type: functional; settings: MV4-11, 504 h, time 21 day
[8] = Toxicity in BALB/c mouse xenografted with human MV4-11 cells assessed as mortality at 30 mg/kg, iv QD for 10 days; assay type: organism-based; settings: in vivo, 240 h, time 10 day
BaF3 [9] = experiment: Antiproliferative activity against mouse BaF3 cells harboring FLT3-ITD-F691L mutant assessed as reduction in cell viability incubated for 72 hrs by CellTiterGlo luminescent assay; assay type: functional, cell-based; settings: BaF3, 72 h
[10] = Antiproliferative activity against mouse BaF3 cells assessed as reduction in cell viability measured after 72 hrs by CellTiterGlo luminescent assay; assay type: toxicity, cell-based
BaF3 [11] = experiment: Antiproliferative activity against mouse BaF3 cells harboring FLT3-ITD mutant assessed as reduction in cell viability measured after 72 hrs by CellTiterGlo luminescent assay; assay type: functional, cell-based; settings: BaF3, 72 h
BaF3 [12] = assay type: functional, cell-based; settings: Mus musculus, BaF3, 72 h
BaF3 [13] = experiment: Antiproliferative activity against mouse BaF3 cells harboring FLT3-ITD-Y842H mutant assessed as reduction in cell viability measured after 72 hrs by CellTiterGlo luminescent assay; assay type: functional, cell-based; settings: BaF3, 72 h
BaF3 [14] = experiment: Antiproliferative activity against mouse BaF3 cells harboring FLT3-ITD-N676D mutant assessed as reduction in cell viability measured after 72 hrs by CellTiterGlo luminescent assay; assay type: functional, cell-based; settings: BaF3, 72 h
BaF3 [15] = experiment: cells; settings: Mus musculus, BaF3, 72 h
Description: Antiproliferative activity against mouse BaF3 cells harboring FLT3-ITD-D835V mutant assessed as reduction in cell viability measured after 72 hrs by CellTiterGlo luminescent assay

SMILES | IC50 (MV4-11 [1]) [nM] | Activity (BaF3 [2]) [%] | IC50 [3] [nM] | Activity (BaF3 [4]) [%] | other results
COCCNc1ccc(C(=O)Nc2cc(-c3ccc4ncn(Cc5c(Cl)cccc5Cl)c4c3)[nH]n2)cc1 | 6.37 | 84.97 | – | – | –
CN1CCC(Nc2ccc(C(=O)Nc3cc(-c4ccc5ncn(CC6CCCCC6)c5c4)[nH]n3)cc2)CC1 | – | – | 3.86 | – | –
O=C(Nc1cc(-c2ccc3ncn(Cc4c(Cl)cccc4Cl)c3c2)[nH]n1)c1ccc(N2CC3CC2CN3)cc1 (stereo not given) | 2.26 | 103.48 | – | – | –
CN1CCC(Nc2ccc(C(=O)Nc3cc(-c4ccc5ncn(Cc6ccc(F)cc6)c5c4)[nH]n3)cc2)CC1 | 23.6 | – | 4.58 | 100.93 | –
CCN1CCN(c2ccc(C(=O)Nc3cc(-c4ccc5ncn(Cc6c(F)cccc6Cl)c5c4)[nH]n3)cc2)CC1 | 2.61 | 101.37 | – | – | Activity (BaF3 [5]): 21.63%
CN1CCC(Nc2ccc(C(=O)Nc3cc(-c4ccc5ncn(Cc6ccccc6)c5c4)[nH]n3)cc2F)CC1 | 32.6 | – | 3.77 | 100.57 | –
Nc1ccn([C@@H]2O[C@H](CO)[C@@H](O)[C@@H]2O)c(=O)n1 [CYTARABINE] | – | – | – | – | inhibition in vivo at 30 mg/kg (MV4-11 [6]): 66%; inhibition in vivo at 30 mg/kg (MV4-11 [7]): 50.6%; Activity [8]: Toxic
CN1CCC(Nc2ccc(C(=O)Nc3cc(-c4ccc5ncn(Cc6c(Cl)cccc6Cl)c5c4)[nH]n3)cc2)CC1 | 0.77 | 104.29 | – | – | –
CC(C)n1cnc2ccc(-c3cc(NC(=O)c4ccc(NC5CCN(C)CC5)cc4)n[nH]3)cc21 | – | – | 7.65 | – | –
CN1CCC(Nc2ccc(C(=O)Nc3cc(-c4ccc5ncn(-c6ccccc6)c5c4)[nH]n3)cc2)CC1 | – | – | 4.96 | – | –
CN1CCC(Nc2ccc(C(=O)Nc3cc(-c4ccc5ncn(Cc6ccccc6)c5c4)[nH]n3)c(F)c2)CC1 | 99.3 | – | 11.1 | – | –
CN1CCC(Nc2ccc(C(=O)Nc3cc(-c4ccc5ncn(Cc6cccc(Cl)c6)c5c4)[nH]n3)cc2)CC1 | 66 | – | 0.94 | 100.75 | –
CN1CCC(Nc2ccc(C(=O)Nc3cc(-c4ccc5ncn(Cc6ccncc6)c5c4)[nH]n3)cc2)CC1 | – | – | 16 | – | –
CN1CCCN(c2ccc(C(=O)Nc3cc(-c4ccc5ncn(Cc6c(Cl)cccc6Cl)c5c4)[nH]n3)cc2)CC1 | 1.38 | 107.43 | – | – | –
CCN1CCN(c2ccc(C(=O)Nc3cc(-c4ccc5ncn(Cc6c(Cl)cccc6Cl)c5c4)[nH]n3)cn2)CC1 | 3.25 | 102.56 | – | – | –
CN1CCC(Nc2ccc(C(=O)Nc3cc(-c4ccc5ncn(Cc6ccsc6)c5c4)[nH]n3)cc2)CC1 | 55.6 | – | 1.42 | 108.58 | –
CN1CCC(Nc2ccc(C(=O)Nc3cc(-c4ccc5ncn(Cc6ccccc6Cl)c5c4)[nH]n3)cc2)CC1 | 25.4 | – | 0.85 | 40.17 | –
CN1CCC(Nc2ccc(C(=O)Nc3cc(-c4cccc5c4ncn5C)[nH]n3)cc2)CC1 | – | – | 23.7 | – | –
CN1CCC(Nc2ccc(C(=O)Nc3cc(-c4ccc5ncn(Cc6ccccc6)c5c4)[nH]n3)cc2)CC1 | – | – | 1.84 | 96.22 | –
CC(=O)N1CCN(c2ccc(C(=O)Nc3cc(-c4ccc5ncn(Cc6c(Cl)cccc6Cl)c5c4)[nH]n3)cc2)CC1 | 1.1 | 103.45 | – | – | –
CN1CCN(c2ccc(C(=O)Nc3cc(-c4ccc5ncn(Cc6c(Cl)cccc6Cl)c5c4)[nH]n3)cc2)CC1=O | 2.64 | 104.57 | – | – | –
CN1CCC(Nc2ccc(C(=O)Nc3cc(-c4ccc5ncn(C)c5c4)[nH]n3)cc2)CC1 | – | – | 7.59 | – | –
CN1CCC(Nc2ccc(C(=O)Nc3cc(-c4ccc5ncn(Cc6ccccc6F)c5c4)[nH]n3)cc2)CC1 | 90.6 | – | 8.34 | 99.79 | –
O=C(Nc1cc(-c2ccc3ncn(Cc4ccccc4)c3c2)[nH]n1)c1ccccc1 | 219 | – | 12.9 | – | –
COc1ccccc1Cn1cnc2ccc(-c3cc(NC(=O)c4ccc(NC5CCN(C)CC5)cc4)n[nH]3)cc21 | 33.6 | – | 0.7 | 85.88 | –
CN(C)CCN(C)c1ccc(C(=O)Nc2cc(-c3ccc4ncn(Cc5c(Cl)cccc5Cl)c4c3)[nH]n2)cc1 | 2.78 | 102.83 | – | – | –
O=C(Nc1cc(-c2ccc3ncn(Cc4ccccc4Cl)c3c2)[nH]n1)c1ccc(N2CCNCC2)cc1 | 13.8 | – | – | 14.55 | IC50 (BaF3 [9]): 60.9 nM

SMILES | IC50 (MV4-11 [1]) [nM] | Activity (BaF3 [2]) [%] | IC50 [3] [nM] | Activity (BaF3 [4]) [%] | other results
Cc1cc(NC2CCN(C)CC2)ccc1C(=O)Nc1cc(-c2ccc3ncn(Cc4ccccc4)c3c2)[nH]n1 | 86.2 | – | 9.06 | – | –
CCN1CCN(c2ncc(C(=O)Nc3cc(-c4ccc5ncn(Cc6c(Cl)cccc6Cl)c5c4)[nH]n3)cn2)CC1 | 12.6 | 111.76 | – | – | –
CN1CCC(Nc2ccc(C(=O)Nc3cc(-c4ccc5ncccc5c4)[nH]n3)cc2)CC1 | – | – | 10.3 | – | –
CCN1CCN(c2ccc(C(=O)Nc3cc(-c4ccc5ncn(Cc6cccc(F)c6Cl)c5c4)[nH]n3)cc2)CC1 | 12.5 | 101.05 | – | – | Activity (BaF3 [5]): 47.53%
CCN1CCN(c2ccc(C(=O)Nc3cc(-c4ccc5ncn(Cc6cc(F)ccc6Cl)c5c4)[nH]n3)cc2)CC1 | 12.6 | 107.7 | – | – | Activity (BaF3 [5]): 49.36%
CC(C)(C)c1cc(NC(=O)Nc2ccc(-c3cn4c(n3)sc3cc(OCCN5CCOCC5)ccc34)cc2)no1 [QUIZARTINIB] | – | – | – | – | IC50 (BaF3 [9]): 133 nM; IC50 at 72 h [10]: > 1000 nM; IC50 (BaF3 [11]): 3.52 nM; IC50 (BaF3 [12]): 27.1 nM; IC50 (BaF3 [13]): 15 nM; IC50 (BaF3 [14]): 5.41 nM; IC50 (BaF3 [15]): 49.6 nM
CN1CCN(c2ccc(C(=O)Nc3cc(-c4ccc5ncn(Cc6ccccc6Cl)c5c4)[nH]n3)cc2)CC1 | 30 | – | – | 20.29 | IC50 (BaF3 [9]): 82.8 nM
CN1CCC(Nc2ccc(C(=O)Nc3cc(-c4ccc5ncn(C6CCOCC6)c5c4)[nH]n3)cc2)CC1 | – | – | 5.73 | – | –
CN1CCC(Nc2ccc(C(=O)Nc3cc(-c4ccc5nccnc5c4)[nH]n3)cc2)CC1 | – | – | 14.1 | – | –
CN1CCC(Nc2ccc(C(=O)Nc3cc(-c4ccc5ncn(Cc6ccc(Cl)cc6)c5c4)[nH]n3)cc2)CC1 | 219 | – | 3.59 | 101.73 | –
CCN1CCN(c2ccc(C(=O)Nc3cc(-c4ccc5ncn(Cc6c(C)cccc6C)c5c4)[nH]n3)cc2)CC1 | 4.85 | 103.84 | – | – | Activity (BaF3 [5]): 4.57%
O=C(Nc1cc(-c2ccc3ncn(Cc4c(Cl)cccc4Cl)c3c2)[nH]n1)c1ccc(N2CC3CC2CO3)cc1 (stereo not given) | 2.88 | 88.75 | – | – | –
O=C(Nc1cc(-c2ccc3ncn(Cc4ccccc4Cl)c3c2)[nH]n1)c1ccc(N2CCOCC2)cc1 | 9.02 | – | – | 16.59 | IC50 (BaF3 [9]): 65.2 nM
CN1CCC(Nc2ccc(C(=O)Nc3cc(-c4ccc5c(c4)ncn5Cc4ccccc4)[nH]n3)cc2)CC1 | 58.4 | – | 4.96 | – | –
CN1CCC(Nc2ccc(C(=O)Nc3cc(-c4ccc5ccn(Cc6ccccc6)c5c4)[nH]n3)cc2)CC1 | 75.6 | – | 2.06 | – | –
CN1CCC(Nc2ccc(C(=O)Nc3cc(-c4ccc5ncn(C6CC6)c5c4)[nH]n3)cc2)CC1 | – | – | 3.58 | – | –
CN1CCN(Cc2ccc(NC(=O)c3n[nH]cc3Nc3ncnc4[nH]ccc34)cc2)CC1 | 6.38 | – | 1.71 | – | IC50 (BaF3 [9]): 7.65 nM
CCN1CCN(c2ccc(C(=O)Nc3cc(-c4ccc5ncn(Cc6ccccc6Cl)c5c4)[nH]n3)cc2)CC1 | 12.4 | 90.16 | – | 1.72 | Activity (BaF3 [5]): 19.95%; IC50 (BaF3 [9]): 29.2 nM
CN1CCC(Nc2ccc(C(=O)Nc3cc(-c4ccc5ncn(C6CCCC6)c5c4)[nH]n3)cc2)CC1 | 68.2 | – | 1.14 | 97.57 | –
CN1CCC(Nc2ccc(C(=O)Nc3cc(-c4cccc5ncn(C)c45)[nH]n3)cc2)CC1 | – | – | 213 | – | –
CN1CCC(C(=O)Nc2cc(-c3ccc4ncn(Cc5ccccc5)c4c3)[nH]n2)CC1 | 1700 | – | 397 | – | –
Cc1cc(C(=O)Nc2cc(-c3ccc4ncn(Cc5ccccc5)c4c3)[nH]n2)ccc1NC1CCN(C)CC1 | 48.2 | – | 3.72 | 99.36 | –
Cc1ccccc1Cn1cnc2ccc(-c3cc(NC(=O)c4ccc(NC5CCN(C)CC5)cc4)n[nH]3)cc21 | 29.7 | – | 0.94 | 86.49 | –
O=C(Nc1cc(-c2ccc3ncn(Cc4c(Cl)cccc4Cl)c3c2)[nH]n1)c1ccc(N2CCOCC2)cc1 | 3.61 | 109.68 | – | – | –
CN1CCC(Nc2ccc(C(=O)Nc3cc(-c4ccc5ncn(Cc6cccc(F)c6)c5c4)[nH]n3)cc2)CC1 | 18.5 | – | 3.22 | 97.08 | –
CN1CCC(Nc2ccc(C(=O)Nc3cc(-c4ccc5ncn([C@H]6CC[C@H](N)CC6)c5c4)[nH]n3)cc2)CC1 | – | – | 3.88 | – | –
CN(C)CCNc1ccc(C(=O)Nc2cc(-c3ccc4ncn(Cc5c(Cl)cccc5Cl)c4c3)[nH]n2)cc1 | 3.14 | 101.71 | – | – | –
